Assay results from PubChem BioAssay (NCI).
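Growth conditions: 96-well plates. Treatment: test compound, 48 hours, 5 concentrations. Analysis: linear interpolation between bracketing concentrations; unreached endpoints set to highest concentration. GI50: concentration for 50% inhibition of growth. TGI marks complete inhibition of growth.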

What was measured:
Assay in all cases: growth of human tumour cells (NCI), 48 h
SF-295 CNS = tested on: SF-295 CNS
SF-268 CNS = tested on: SF-268 CNS
PC-3 prostate = tested on: PC-3 prostate
EKVX NSCLC = tested on: EKVX NSCLC
U251 CNS = tested on: U251 CNS
HL-60(TB) leukemia = tested on: HL-60(TB) leukemia
OVCAR-3 ovarian = tested on: OVCAR-3 ovarian
DU-145 prostate = tested on: DU-145 prostate
HOP-92 NSCLC = tested on: HOP-92 NSCLC
T-47D breast = tested on: T-47D breast
IGROV1 ovarian = tested on: IGROV1 ovarian
MDA-N = tested on: MDA-N
OVCAR-8 ovarian = tested on: OVCAR-8 ovarian
BT-549 breast = tested on: BT-549 breast

SMILES	TGI (SF-295 CNS) [µM]	TGI (SF-268 CNS) [µM]	TGI (PC-3 prostate) [µM]	TGI (EKVX NSCLC) [µM]	TGI (U251 CNS) [µM]	TGI (HL-60(TB) leukemia) [µM]	TGI (OVCAR-3 ovarian) [µM]	TGI (DU-145 prostate) [µM]	TGI (HOP-92 NSCLC) [µM]	TGI (T-47D breast) [µM]	TGI (IGROV1 ovarian) [µM]	TGI (MDA-N) [µM]	TGI (OVCAR-8 ovarian) [µM]	TGI (BT-549 breast) [µM]	GI50 (PC-3 prostate) [µM]	GI50 (EKVX NSCLC) [µM]	GI50 (U251 CNS) [µM]	GI50 (OVCAR-3 ovarian) [µM]	GI50 (HOP-92 NSCLC) [µM]	GI50 (BT-549 breast) [µM]
CCOP(=O)(O)C(C)(C)NC	> 100	> 100	> 100	> 100	> 100	> 100	> 100	> 100	> 100	> 100	> 100	> 100	> 100	–	–	–	–	–	–	–
O=c1c2c(-c3ccccc3)onc2n(-c2ccccc2)c(=O)n1-c1ccccc1	> 100	> 100	82	59.5	> 100	–	38.6	–	> 100	> 100	52.1	> 100	45.5	39.5	–	–	–	–	–	–
CCOC(=O)c1ccc(NC(=O)O/N=C(/Cl)CCl)cc1	> 100	> 100	> 100	> 100	> 100	68.7	> 100	> 100	–	> 100	> 100	> 100	> 100	–	–	–	–	–	–	–
COc1cc2c(cc1O)C1C(O)C(O)C=C3CCN(C2)C31 (stereo not drawn)	17.6	10.5	–	14.8	24.2	7.53	8.12	–	5.92	–	13.6	–	9.14	–	–	–	–	–	–	–
C[C@@H]1CCC2[C@@H](C)[C@@H](OCCO[C@H]3OC4O[C@@]5(C)CCC6[C@H](C)CCC([C@H]3C)[C@@]46OO5)OC3O[C@@]4(C)CCC1[C@]32OO4 (stereo partly drawn)	> 100	> 100	> 95.8	> 100	> 100	> 100	–	–	> 57.7	> 100	> 100	> 100	> 78.2	–	–	–	–	–	–	–
COc1ccc(-c2c(C#N)c(O)n(NS(=O)(=O)c3ccc(C)cc3)c(=O)c2C#N)cc1	> 100	> 100	> 100	> 100	> 100	> 100	–	–	> 100	–	> 100	> 100	> 100	> 100	–	–	–	–	–	–
O=C(O)CCN(CCC(=O)O)c1ccc(/C=C2\SC(=S)NC2=O)cc1	> 100	> 100	> 100	> 100	> 100	> 100	> 100	> 100	> 100	> 100	> 100	–	> 100	> 100	–	–	–	–	–	–
CC(/C=N\NC(=S)N1CCCCC1)=N/NC(=S)N1CCCCC1	14.4	14.6	11.9	14.8	13	–	5.12	4.58	7.48	–	8.3	12.1	16.1	13.4	–	–	–	–	–	–
CC(C)(C)[Si](C)(C)OC1/C(=C/C#N)C(n2ccc(=O)[nH]c2=O)OC1CO (stereo not drawn)	> 100	> 100	> 100	–	> 100	–	> 100	> 100	> 100	> 100	–	> 100	> 100	–	–	–	–	–	–	–
CC1(C)OC2C(O)CN3CCS[C@H]3C2O1 (stereo partly drawn)	> 100	> 100	> 100	> 100	> 100	> 100	> 100	> 100	> 100	> 100	> 100	–	> 100	> 100	–	–	–	–	–	–
CC(C)C1=C(Cc2ccccc2)C(=O)O/C1=C\c1cc(Cl)c(O)c(Cl)c1	30.8	48.2	31.1	65.1	31.8	41.7	27.2	30.3	–	–	44.1	37.4	42.4	–	–	–	–	–	–	–
CCOC(=O)C1=C(N)Oc2ccc(Br)cc2C1C(C#N)C(=O)OCC (stereo not drawn)	> 100	38.5	43.4	> 100	33.8	> 100	39.7	> 100	37	53.1	36.5	54.9	45.1	–	–	–	–	–	–	–
CC(CCC#N)(CCC#N)C(=O)CC(O)(C(F)(F)F)C(F)(F)F	41	> 58.8	28.4	44.1	33.2	3.99	7.73	26.1	15.6	16.2	29.3	4.88	16.6	–	–	–	–	–	–	–
COC(=O)C1C=CN(N(C)C)C2=C1C(=O)c1c(O)cccc1C2=O (stereo not drawn)	3.31	17.3	> 100	11	11.8	–	5.82	2.96	–	6.45	5.63	–	7.4	3.86	–	–	–	–	–	–
CC(C)(C)c1cc(C(=O)/C=C/C=C/c2ccccc2)cc(C(C)(C)C)c1O	> 100	> 74	> 79.9	> 100	33.5	8.88	> 94.1	98.1	> 100	> 100	> 100	–	58.5	57.2	–	–	–	–	–	–
CCOC(=O)NC1CN2CCC1CC2 (stereo not drawn)	> 100	> 100	> 100	> 100	> 100	> 100	> 100	> 100	> 100	> 100	> 100	> 100	> 100	–	–	–	–	–	–	–
CC(C)=C1C(=O)C[C@]2(C)C[C@H]3/C(=C(/C)CCC12)CC[C@@]3(C)O (stereo partly drawn)	> 50	> 50	> 50	> 50	> 50	28.6	> 50	> 50	> 50	> 50	> 50	–	> 50	> 50	–	–	–	–	–	–
Cc1c(CNc2ccc(C(=O)NC(CC(=O)O)C(=O)O)cc2)ccc2nc(N)nc(N)c12 (stereo not drawn)	> 1000	> 1000	> 1000	> 1000	> 1000	> 1000	> 1000	> 1000	> 1000	–	> 1000	> 1000	> 1000	> 1000	< 0.01	> 1000	0.226	34.6	> 1000	> 1000

SMILES	TGI (SF-295 CNS) [µM]	TGI (SF-268 CNS) [µM]	TGI (PC-3 prostate) [µM]	TGI (EKVX NSCLC) [µM]	TGI (U251 CNS) [µM]	TGI (HL-60(TB) leukemia) [µM]	TGI (OVCAR-3 ovarian) [µM]	TGI (DU-145 prostate) [µM]	TGI (HOP-92 NSCLC) [µM]	TGI (T-47D breast) [µM]	TGI (IGROV1 ovarian) [µM]	TGI (MDA-N) [µM]	TGI (OVCAR-8 ovarian) [µM]	TGI (BT-549 breast) [µM]	GI50 (PC-3 prostate) [µM]	GI50 (EKVX NSCLC) [µM]	GI50 (U251 CNS) [µM]	GI50 (OVCAR-3 ovarian) [µM]	GI50 (HOP-92 NSCLC) [µM]	GI50 (BT-549 breast) [µM]
CSc1nncc2[nH]c(C)nc12	> 100	–	> 100	> 100	> 100	> 100	> 100	–	–	> 100	> 100	> 100	> 100	> 100	–	–	–	–	–	–
O=[N+]([O-])c1cc2c(c3nonc13)OCCCCO2	31.6	27.3	41.7	38.5	45.5	5.15	7.53	28.2	26.3	60.5	21.2	16.4	14.2	–	–	–	–	–	–	–
Cc1cc(OCc2nnc3n2N=C(c2cc(F)c(Cl)cc2Cl)/C(=C/c2ccc(Cl)cc2)S3)ccc1Cl	> 100	51.4	65	> 100	43.4	21.3	> 100	36.6	45.8	> 100	52.8	> 100	39.7	–	–	–	–	–	–	–
C#CCN(CC#C)C(=O)C(=O)c1c[nH]c2ccc(OC)cc12	32.5	> 100	–	> 100	27.6	20.5	–	> 100	33.2	83.5	> 100	–	60.5	–	–	–	–	–	–	–
CC(=C\c1ccccc1)/C=C(\C#N)C(N)=O	> 10	> 10	> 10	> 10	> 10	–	> 10	> 10	–	> 10	> 10	> 10	> 10	–	–	–	–	–	–	–
Cc1c(O)c(C)c2c(C)cn(C(=O)C(C)(C)C)c2c1C	32.9	> 100	38.5	49.7	69	> 100	> 100	43.9	17.5	90	42.2	38.8	34.7	–	–	–	–	–	–	–
O=C1/C(=C/c2ccccc2)NC(=S)N1CN1CCOCC1	> 100	> 100	> 100	> 100	> 100	–	> 100	> 100	> 100	–	> 100	> 100	> 100	–	–	–	–	–	–	–
CC1C[C@]2(C)C(=O)Nc3ccccc3[C@@H]2Nc2ccccc21 (stereo partly drawn)	> 100	> 100	61.3	81.8	–	61	35.9	> 100	27.6	> 100	78.2	> 100	28.9	–	–	–	–	–	–	–
COc1ccc(N2C(=O)CS(=O)(=O)C2c2cccc(Oc3ccccc3)c2)cc1 (stereo not drawn)	> 100	38.4	51.9	47.8	22.1	> 100	> 100	> 100	72.1	> 100	–	–	95.7	54.1	–	–	–	–	–	–
CN1C(=O)C(CC=O)(C(C)(C)C)c2ccccc21 (stereo not drawn)	> 100	> 100	> 100	–	> 100	> 100	> 100	> 100	> 100	> 100	–	> 100	–	–	–	–	–	–	–	–
O=C(O)c1cccnc1	> 100	> 100	> 100	> 100	> 100	> 100	> 100	> 100	> 100	> 100	> 100	> 100	> 100	–	–	–	–	–	–	–
CCSc1[nH]c(Nc2nc(-c3ccccc3)n(-c3ccccc3)n2)c(C(N)=O)c1C(N)=O	> 10	> 10	> 10	> 10	–	> 10	–	> 10	> 10	> 10	> 10	> 10	> 10	–	–	–	–	–	–	–
O=C(NS(=O)(=O)OCC(Cl)(Cl)Cl)SCCC(F)(F)C(F)(F)C(F)(F)C(F)(F)C(F)(F)C(F)(F)F	38.9	> 100	32.4	35.5	51.8	51.2	48.3	> 100	23.4	98.4	> 100	–	> 100	> 100	–	–	–	–	–	–
CN(C)/C=N/n1c2ccccc2c2ccccc21	> 100	> 100	> 100	> 100	> 100	> 100	> 100	> 100	–	> 100	> 100	> 100	> 100	–	–	–	–	–	–	–
Cc1ccc(C(=O)N/N=C(\N=Nc2ccccc2[N+](=O)[O-])c2ccc(N(C)C)cc2)cc1	> 100	> 100	> 100	> 100	> 100	> 100	> 100	–	> 100	–	> 100	> 100	> 100	> 100	–	–	–	–	–	–
Nc1nc2c(ncn2Cc2ccc(CO)cc2)c(=O)[nH]1	> 100	> 100	> 100	> 100	> 100	> 100	> 100	> 100	> 100	> 100	> 100	–	> 100	> 100	–	–	–	–	–	–
COc1ccc(OC)c(N2C(=O)CSC2c2cc(OC)c(OC)c(OC)c2)c1 (stereo not drawn)	> 100	> 100	> 100	> 100	> 100	> 100	> 100	> 100	> 100	–	> 100	> 100	> 100	> 100	–	–	–	–	–	–
COc1ccc(C(OC(C)=O)C2C(=C(C#N)C#N)c3ccccc3C2=C(C#N)C#N)cc1 (stereo not drawn)	64.6	> 100	54.3	> 100	> 100	41.9	50.6	> 100	> 100	> 100	> 100	> 100	> 100	–	–	–	–	–	–	–
